According to PubChem BioAssay AID2060897 (Molecular Pharmacology Branch, DTP, NCI, 2025):

Tested on: 966289-007-R4-J1-PDC complex spheroid viability
Experiment: Anticancer human tumor 966289-007-R4-J1-PDC patient-derived pancreatic adenocarcinoma cell line growth inhibition [RAS]
Conditions: for IC50: curve of first compound; for viability, T/C: stronger effect = lower value
Summary of the method: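 Tumour cells grown as complex spheroids with HUVEC endothelial cells and mesenchymal stem cells, treated with RAS pathway inhibitor combinations. Each agent spans half-log steps from near clinical Cmax, or 10 microM where Cmax is unknown.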
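Note: spheroids exposed to agents for one week before readout.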
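Throughout, for viability, T/C: percent viability relative to DMSO vehicle control wells as 100%.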

In the case of `CCc1c2c(nc3ccc(O)cc13)-c1cc3c(c(=O)n1C2)COC(=O)[C@]3(O)CC` + C#Cc1c(F)ccc2cc(O)cc(-c3ncc4c(N5CC6CCC(C5)N6)nc(OCC56CCCN5CC(F)C6)nc4c3F)c12, the IC50 (second compound 0.0316 µM) is reported as 1.59 nM, the IC50 (second compound 0.1 µM) is reported as 1.5 nM and the IC50 (second compound 0.316 µM) is reported as 1.43 nM. The IC50 (second compound 1 µM) was 1.44 nM, the IC50 (second compound 3.16 µM) was 1.51 nM and the IC50 (second compound 10 µM) was 1.4 nM. It also gave a viability, T/C (second compound 0.0316 µM, first compound 0.000949 µM) of 88.6%, a viability, T/C (second compound 0.0316 µM, first compound 0.003 µM) of 2.5% and a viability, T/C (second compound 0.0316 µM, first compound 0.00949 µM) of 1.27%. For the same molecule, the viability, T/C (second compound 0.0316 µM, first compound 0.03 µM) was 0.94%, the viability, T/C (second compound 0.0316 µM, first compound 0.0949 µM) was 1.06% and the viability, T/C (second compound 0.0316 µM, first compound 0.3 µM) was 1.14%. It also gave a viability, T/C (second compound 0.1 µM, first compound 0.000949 µM) of 81.8%, a viability, T/C (second compound 0.1 µM, first compound 0.003 µM) of 2.09% and a viability, T/C (second compound 0.1 µM, first compound 0.00949 µM) of 0.95%. The viability, T/C (second compound 0.1 µM, first compound 0.03 µM) was 1.18%, the viability, T/C (second compound 0.1 µM, first compound 0.0949 µM) was 0.87% and the viability, T/C (second compound 0.1 µM, first compound 0.3 µM) was 1.15%. For the same molecule, the viability, T/C (second compound 0.316 µM, first compound 0.000949 µM) was 76.5%, the viability, T/C (second compound 0.316 µM, first compound 0.003 µM) was 2.19% and the viability, T/C (second compound 0.316 µM, first compound 0.00949 µM) was 1.22%. It also gave a viability, T/C (second compound 0.316 µM, first compound 0.03 µM) of 1.04%, a viability, T/C (second compound 0.316 µM, first compound 0.0949 µM) of 0.89% and a viability, T/C (second compound 0.316 µM, first compound 0.3 µM) of 1.23%. The viability, T/C (second compound 1 µM, first compound 0.000949 µM) was 77.1%, the viability, T/C (second compound 1 µM, first compound 0.003 µM) was 1.99% and the viability, T/C (second compound 1 µM, first compound 0.00949 µM) was 1.31%. For the same molecule, the viability, T/C (second compound 1 µM, first compound 0.03 µM) was 1.22%, the viability, T/C (second compound 1 µM, first compound 0.0949 µM) was 1.16% and the viability, T/C (second compound 1 µM, first compound 0.3 µM) was 1.16%. It also gave a viability, T/C (second compound 3.16 µM, first compound 0.000949 µM) of 82.2%, a viability, T/C (second compound 3.16 µM, first compound 0.003 µM) of 2.82% and a viability, T/C (second compound 3.16 µM, first compound 0.00949 µM) of 1.66%. It also gave a viability, T/C (second compound 3.16 µM, first compound 0.03 µM) of 1.34%, a viability, T/C (second compound 3.16 µM, first compound 0.0949 µM) of 1.54% and a viability, T/C (second compound 3.16 µM, first compound 0.3 µM) of 1.55%. It also gave a viability, T/C (second compound 10 µM, first compound 0.000949 µM) of 75.1%, a viability, T/C (second compound 10 µM, first compound 0.003 µM) of 1.37% and a viability, T/C (second compound 10 µM, first compound 0.00949 µM) of 1.04%. For the same molecule, the viability, T/C (second compound 10 µM, first compound 0.03 µM) was 0.91%, the viability, T/C (second compound 10 µM, first compound 0.0949 µM) was 0.84% and the viability, T/C (second compound 10 µM, first compound 0.3 µM) was 0.55%.
